Here are results for 23 compounds from patent US8598202B2, “Aryl-hydroxyethylamino-pyrimidines and triazines as modulators of fatty acid amide hydrolase” (Janssen Pharmaceutica NV, priority 2008, dated 2013).

Broadly, the IC50 is the concentration needed to halve the response being measured.

A value given as a limit tells only on which side of the number the result lay.

Experiment [1] concerns spasticity. To be noted: Baker 2001; cited from earlier work.
Experiment [2] concerns neuropathic pain. To be noted: rats; WO 02/087569; cited from earlier work.
Experiment [3] relates to acute thermal nociception. To be noted: rats; WO 02/087569; cited from earlier work.
The target of experiment [4] is T1, Rat FAAH-1 (Rattus norvegicus, UniProt P97612).
T1 sequence (P97612 1-579): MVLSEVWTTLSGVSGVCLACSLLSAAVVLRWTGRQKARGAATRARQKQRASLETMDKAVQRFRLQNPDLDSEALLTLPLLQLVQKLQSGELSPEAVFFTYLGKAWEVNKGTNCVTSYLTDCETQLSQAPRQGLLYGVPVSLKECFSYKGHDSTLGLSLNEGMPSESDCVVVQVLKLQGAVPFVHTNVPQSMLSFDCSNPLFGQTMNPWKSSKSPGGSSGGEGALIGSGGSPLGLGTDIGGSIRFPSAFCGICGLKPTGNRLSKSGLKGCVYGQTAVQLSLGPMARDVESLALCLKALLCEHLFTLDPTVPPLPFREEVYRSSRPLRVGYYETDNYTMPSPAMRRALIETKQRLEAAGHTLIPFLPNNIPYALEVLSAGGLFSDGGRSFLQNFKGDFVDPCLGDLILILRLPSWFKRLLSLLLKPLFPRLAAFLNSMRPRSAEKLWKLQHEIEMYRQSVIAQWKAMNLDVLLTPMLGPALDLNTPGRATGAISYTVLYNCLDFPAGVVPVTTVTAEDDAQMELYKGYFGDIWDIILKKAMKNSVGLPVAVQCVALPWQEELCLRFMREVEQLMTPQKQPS
Description: Assay Method 2: rat FAAH-1 assay, 3H-anandamide hydrolysis in homogenate of SK-N-MC cells transfected with rat FAAH.

The target of experiment [5] is T2, FAAH (Homo sapiens, UniProt O00519).
T2 sequence (O00519 1-579): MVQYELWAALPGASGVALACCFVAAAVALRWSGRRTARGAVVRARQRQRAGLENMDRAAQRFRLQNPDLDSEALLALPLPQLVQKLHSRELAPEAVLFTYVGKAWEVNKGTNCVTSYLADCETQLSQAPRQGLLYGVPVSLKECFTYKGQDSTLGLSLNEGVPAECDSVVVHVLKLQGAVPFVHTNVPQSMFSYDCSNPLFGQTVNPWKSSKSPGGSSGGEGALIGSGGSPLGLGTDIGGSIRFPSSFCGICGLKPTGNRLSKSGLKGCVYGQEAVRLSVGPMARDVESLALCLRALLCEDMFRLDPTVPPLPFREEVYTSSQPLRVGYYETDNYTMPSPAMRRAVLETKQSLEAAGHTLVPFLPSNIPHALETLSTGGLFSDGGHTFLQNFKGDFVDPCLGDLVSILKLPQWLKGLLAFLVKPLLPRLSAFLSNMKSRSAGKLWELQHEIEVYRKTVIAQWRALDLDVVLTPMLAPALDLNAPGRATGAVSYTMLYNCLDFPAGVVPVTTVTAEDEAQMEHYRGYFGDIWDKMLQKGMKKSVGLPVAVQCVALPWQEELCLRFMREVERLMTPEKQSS
The experiment in a line: Assay Method 1: FAAH assay, 3H-anandamide hydrolysis in homogenate of T84 cells or SK-N-MC cells transfected with human FAAH.

Experiment [6] concerns thermal nociception. To be noted: rat; cited from earlier work.
The test system of experiment [7] is thermal nociception. The following applies: rats; WO 04/033652; cited from earlier work.
Experiment [8] has as its target T2, FAAH. The following applies: reported; cited from earlier work.
For experiment [9], the system named is nociception. The following applies: rat; Kathuria 2003; cited from earlier work.
The test system of experiment [10] is anxiety. The following applies: rats; Kathuria 2003; cited from earlier work.

On to `CCCCCCCCCCCCCCCCS(=O)(=O)F` [AM374], for which the “reduction of spasticity in CREAE mice” value in experiment [1] is “significantly reduce spasticity”.
Turning to `Cc1nc(-c2ccccc2)c(-c2ccccc2)n1CCCCCCNC(=O)Oc1ccccc1F` [BMS-1], the “analgesic effect in Chung spinal nerve ligation model” value in [2] is on record as “analgesic effect”. The “analgesic effect in Hargraves test” value in experiment [3] is “analgesic effect”.
On to `O[C@@H](CNc1cc(-c2ccc(C(F)(C(F)(F)F)C(F)(F)F)cc2)ncn1)c1ccccc1` [Example 219, (1R)-Phenyl-2-{6-[4-(1,2,2,2-tetrafluoro-1-trifluoromethyl-ethyl)-phenyl]-pyrimidin-4-ylamino}-ethanol], for which the IC50 in experiment [4] was over 10000 nM; in experiment [5], 2000 nM.
On to `O[C@@H](CNc1cc(-c2cccc(C(F)(C(F)(F)F)C(F)(F)F)c2)ncn1)c1ccccc1` [Example 220, (1R)-Phenyl-2-{6-[3-(1,2,2,2-tetrafluoro-1-trifluoromethyl-ethyl)-phenyl]-Pyrimidin-4-ylamino}-ethanol], for which the IC50 in experiment [4] came to 690 nM; in [5], 42 nM.
Taken in the same sequence, the figures for `O[C@@H](CNc1cc(-c2ccc3c(C(F)(F)F)csc3c2)ncn1)c1ccccc1` [Example 221] were 480 nM and 19 nM.
For `Cc1ccc(-c2cc(NCC(O)c3ccccc3)ncn2)cc1C` (centres unmarked) [Example 223, 2-{[6-(3,4-Dimethylphenyl)pyrimidin-4-yl]amino}-1-phenylethanol], in that order: 707 nM and 144 nM.
Take `CC(C)(C)c1ccc(-c2cc(NCC(O)c3ccccc3)ncn2)cc1` (centres unmarked) [Example 224, 2-({6-[4-(1,1-Dimethylethyl)phenyl]pyrimidin-4-yl}amino)-1-phenylethanol]: the IC50 in [4] came out at 538 nM; in experiment [5], 28 nM.
Taken in the same sequence, the figures for `CSc1ccc(-c2cc(NCC(O)c3ccccc3)ncn2)cc1` (centres unmarked) [Example 225, 2-[6-(4-Methylsulfanyl-phenyl)-Pyrimidin-4-ylamino]-1-phenyl-ethanol] were 128 nM and 11 nM.
In the case of `N#Cc1ccc(-c2cc(NCC(O)c3ccccc3)ncn2)cc1` (centres unmarked) [Example 226, 4-{6-[(2-Hydroxy-2-phenylethyl)amino]pyrimidin-4-yl}benzonitrile], the figures for the half-inhibitory concentration (IC50) in [4] and in [5] were 663 nM and 341 nM, respectively.
As for `OC(CNc1cc(-c2cc3ccccc3s2)ncn1)c1ccccc1` (centres unmarked) [Example 227, 2-(6-Benzo[b]thiophen-2-yl-pyrimidin-4-ylamino)-1-phenyl-ethanol], the IC50 in [4] came to 216 nM; in [5], 33 nM.
Consider `CC(=O)c1ccc(-c2cc(NCC(O)c3ccccc3)ncn2)cc1` (centres unmarked) [Example 228, 1-(4-{6-[(2-Hydroxy-2-phenylethyl)amino]pyrimidin-4-yl}phenyl)ethanone], for which the IC50 in experiment [4] stood at 66 nM; in [5], 26 nM.
As to `OC(CNc1cc(-c2ccc3c(c2)OCO3)ncn1)c1ccccc1` (centres unmarked) [Example 232, 2-(6-Benzo[1,3]dioxol-5-yl-pyrimidin-4-ylamino)-1-phenyl-ethanol], the IC50 in [4] stood at 1000 nM; in [5], 150 nM.
Taken in the same sequence, the figures for `O=[N+]([O-])c1cccc(-c2cc(NCC(O)c3ccccc3)ncn2)c1` (centres unmarked) [Example 234, 2-[6-(3-Nitro-phenyl)-pyrimidin-4-ylamino]-1-phenyl-ethanol] were over 10000 nM and over 10000 nM.
Taken in the same sequence, the figures for `OC(CNc1cc(-c2ccc3ccccc3c2)ncn1)c1ccccc1` (centres unmarked) [Example 235, 2-[(6-Naphthalen-2-ylpyrimidin-4-yl)amino]-1-phenylethanol] were 324 nM and 21 nM.
Take `CC(=O)c1ccc(-c2cc(NCC(O)c3ccccc3)ncn2)s1` (centres unmarked) [Example 236, 1-{5-[6-(2-Hydroxy-2-phenyl-ethylamino)-pyrimidin-4-yl]-thiophen-2-yl}-ethanone]: the values for the half-inhibitory concentration (IC50) in experiment [4] and in experiment [5] were 4000 nM and 700 nM, respectively.
On to `OC(CNc1cc(-c2c(F)cccc2F)ncn1)c1ccccc1` (centres unmarked) [Example 237, 2-[6-(2,6-Difluoro-phenyl)-pyrimidin-4-ylamino]-1-phenyl-ethanol], for which the IC50 in experiment [4] and in experiment [5] was over 10000 nM in each case.
Turning to `Oc1ccc(-c2cc(NCC(O)c3ccccc3)ncn2)cc1` (centres unmarked) [Example 238, 4-[6-(2-Hydroxy-2-phenyl-ethylamino)-pyrimidin-4-yl]-phenol], the results for the half-maximal inhibitory concentration (IC50) in [4] and in [5] were over 10000 nM and 7000 nM, respectively.
Taken in the same sequence, the figures for `OC(CNc1cc(-c2cc(C(F)(F)F)cc(C(F)(F)F)c2)ncn1)c1ccccc1` (centres unmarked) [Example 239, 2-[6-(3,5-Bis-trifluoromethyl-phenyl)-pyrimidin-4-ylamino]-1-phenyl-ethanol] were over 10000 nM and over 10000 nM.
For `CC(=O)Nc1cccc(-c2cc(NCC(O)c3ccccc3)ncn2)c1` (centres unmarked) [Example 242, N-{3-[6-(2-Hydroxy-2-phenyl-ethylamino)-pyrimidin-4-yl]-phenyl}-acetamide], in that order: over 10000 nM and over 10000 nM.
With `OC(CNc1cc(-c2cccs2)ncn1)c1ccccc1` (centres unmarked) [Example 244, 1-Phenyl-2-(6-thiophen-2-yl-pyrimidin-4-ylamino)-ethanol], the 50% inhibitory concentration (IC50) in experiment [4] and in experiment [5] was over 10000 nM in each case.
Turning to `OC(CNc1cc(-c2ccsc2)ncn1)c1ccccc1` (centres unmarked) [Example 245, 1-Phenyl-2-(6-thiophen-3-yl-pyrimidin-4-ylamino)-ethanol], the IC50 in [4] and in experiment [5] was over 10000 nM throughout.
On to `O=C(CCCCCCc1ccccc1)c1ncc(-c2ccccn2)o1` [OL-135], for which, in experiment [6], the “analgesic efficacy/activity in hot plate test” value is on record as “analgesic activity”. Besides, the “analgesic activity in tail emersion test” value in [7] is on record as “analgesic activity”. For the same compound, in [8], the “inhibition of FAAH” value is reported as “potent inhibitor”.
For the compound `NC(=O)c1cccc(-c2cccc(OC(=O)NC3CCCCC3)c2)c1` [URB-597], the “analgesic efficacy/activity in hot plate test” value in [6] is on record as “analgesic efficacy”. Moreover, the “analgesic efficacy in formalin test” value in [9] is recorded as “analgesic efficacy”. Moreover, the “efficacy in zero plus maze model of anxiety” value in [10] is “efficacy”.
